In BindingDB's records for doi:10.1016/s0960-894x(00)00662-4 (Dupont Pharmaceuticals, 2001):

Test: Compound was evaluated for its ability to inhibit the NNRTI HIV-1 enzyme by 50% using enzyme assay

O=C1Nc2ccc(Cl)cc2[C@@](C#CC2CC2)(C(F)(F)F)N1
IC50: 0.031 µM
